From patent US20230257468A1, “CIS-Binding Siglec Agonists and Related Compositions And Methods” (The Board of Trustees of the Leland Stanford Junior …, priority 2020, published 2023)

How the values were obtained:
Assay type in all cases: cell-based, human
neutrophils = experiment: Oxidative burst (ROS) in neutrophils
PADI4 substrate H3 = experiment: Western blot of H3 citrullination in neutrophils
primary neutrophils = experiment: Live-cell imaging NETosis assay, primary neutrophils; details: healthy neutrophils in vitro
Description: (a-c) Primary neutrophils were cotreated with R848 (10 μM) and glycopolypeptide (500 nM) in IMDM supplemented 0.5% hiFBS containing the membrane impermeable DNA intercalators Cytotox Green or Red (250 nM). Images were acquired by fluorescence microscopy every 15 min for 12 h. The area of all green fluorescent objects >300 μm^2 was quantified and the total area was averaged across three images per well. Relative NETosis was determined by normalizing to the maximal NET area from R848 treatment alone (t=8 h). (a) Representative phase contrast and fluorescence images from t=8 h. Scale bars indicate 40 μm. (b) Quantitation of NETosis over time as area under the curve in (c). Error bars represent SD. (c) NET formation and degradation as a function of time. Error bands represent SEM. (d) Treatment of R848-stimulated neutrophils with various glycopolypeptides. Error bars represent SD. […] Statistics were determined by two-way ANOVA (b) or one-way ANOVA (c,d,f). * p<0.05; ** p<0.01; *** p<0.001; **** p<0.0001.
TLR agonists were assayed using the live-cell imaging techniques in which freshly isolated neutrophils are cultured in low-serum media in the presence of a fluorogenic and membrane impermeable DNA-intercalating dye (Cytotox Green). Upon genomic DNA-externalization by NETosis, dye intercalates and fluorescence increases. […]

dHL-60 cells = experiment: NETosis in neutrophil-like dHL-60 cells
Description: (a-c) Primary neutrophils were cotreated with R848 (10 μM) and glycopolypeptide (500 nM) in IMDM supplemented 0.5% hiFBS containing the membrane impermeable DNA intercalators Cytotox Green or Red (250 nM). Images were acquired by fluorescence microscopy every 15 min for 12 h. The area of all green fluorescent objects >300 μm^2 was quantified and the total area was averaged across three images per well. Relative NETosis was determined by normalizing to the maximal NET area from R848 treatment alone (t=8 h). (a) Representative phase contrast and fluorescence images from t=8 h. Scale bars indicate 40 μm. (b) Quantitation of NETosis over time as area under the curve in (c). Error bars represent SD. (c) NET formation and degradation as a function of time. Error bands represent SEM. (d) Treatment of R848-stimulated neutrophils with various glycopolypeptides. Error bars represent SD. (e) pS9L is a mucin-like glycopolypeptide that bears high affinity and specific ligands for Siglec-9 and is functionalized with a membrane-tethering lipid tail. (f) HL-60 cells were transfected with siRNAs against SIGLEC9 (encoding Siglec-9), PTPN6 (encoding SHP-1), or a scrambled control and then grown for two days. Cells were then cotreated with R848 (10 μM) and vehicle or pS9L (500 nM). […] Statistics were determined by two-way ANOVA (b) or one-way ANOVA (c,d,f). * p<0.05; ** p<0.01; *** p<0.001; **** p<0.0001. […]

| SMILES | inhibition of pS9L-induced oxidative burst (neutrophils) | citrullination of H3 (PADI4 substrate H3) | induction of NETosis (primary neutrophils) | induction of NETosis (dHL-60 cells) |
| --- | --- | --- | --- | --- |
| O=S(=O)(O)c1ccc2cc(N=Nc3cc(S(=O)(=O)O)c4cccnc4c3O)ccc2c1 [NSC-87877] | the oxidative burst was inhibited |  |  |  |
| CCCCCCCCCCCCCC(=O)O[C@@H]1[C@@H](C)[C@@]2(O)[C@@H](C=C(CO)C[C@]3(O)C(=O)C(C)=C[C@@H]23)[C@@H]2C(C)(C)[C@]12OC(C)=O [PMA, phorbol-12-myristate-13-acetate] |  | only yields moderate citrullination |  |  |
| CCOCc1nc2c(N)nc3ccccc3c2n1CC(C)(C)O [R848] |  | rapidly induced citrullination at R2, R8, and R17 | sufficient to induce NETosis | induced NETosis |
